Experiments:
[1] = system: H9c2 (murine heart myoblast); experiment: MTT toxicity evaluation, H9c2; format: cell-based; settings: H9c2, 72 h treatment, non-tumor cells, read-out: Half Maximal Inhibitory Concentration (IC50) H9c2
Experimental: (§1) The cytotoxicity of hederagenin derivatives in vitro was evaluated on three tumor cell lines (A549: human non-small-cell lung cancer; MCF-7: human mammary cancer; HepG2: human hepatocellular carcinoma) using the 3-(4,5-dimethylthiazol-2-yl)-2,5-diphenyltetrazolium bromide (MTT) assay. In addition, their toxicity evaluations were tested on H9c2 (murine heart myoblast) and MDCK (Madin–Darby canine kidney) cells. MCF-7, A549, HepG2, H9c2, and MDCK cells were obtained from the Chinese Academy of Medical Sciences and Peking Union Medical College. All of the cell lines were maintained in Dulbecco’s modified Eagle medium (DMEM) supplemented with 1% (v/v) penicillin/streptomycin and 10% (v/v) fetal bovine serum (FBS; Thermo Technologies, New York, NY, USA) under a humidified atmosphere containing 5% CO2 at 37 °C. The stock solutions of He derivatives were dissolved in dimethyl sulfoxide (DMSO; Sigma, St. Louis, MO, USA) and added at various concentrations to the cell culture. Cellular morphologies were observed using an inverted fluorescence microscope (Olympus IX71, Tokyo, Japan), a plate reader (BIORAD 550 spectrophotometer, Bio-rad Life Science Development Ltd., Beijing, China), and a Canton 2 flow cytometer (BD, New York, NY, USA). The antitumor activity of these compounds were evaluated on MCF-7, A549, HepG2, MDCK, and H9c2 cell lines using the MTT assay. Cells at a density of 3 × 10^3 cells/well were plated in a 96-multiwell plate in DMEM containing 10% FBS for 24 h at 37 °C with 5% CO2. Then, cells were treated for 72 h with the required concentrations (3.125, 6.25, 12.5, 25, or 50 μM) of the compounds and reference drugs (He and DDP) dissolved with the vehicle DMSO. After that, the culture substrate was replaced with 200 μL of DMEM containing 20 μL of MTT solution at 5 mg/mL and incubated for 4 h. The supernatant was removed and the dissolved formazans precipitated with 120 μL of DMSO. Wells without drugs were used as blanks. A plate reader was used to determine the absorbance at 490 nm. The above steps were repeated three times. The IC50 values were defined as the concentration of the compound which gave 50% growth inhibition, and they were calculated using Graph Pad Prism 5. The inhibition rate was calculated using the following formula, where OD is the optical density:% inhibition = 1 − (Sample group OD/Control group OD) × 100%. (1)

[2] = system: MCF-7 (human mammary cancer); experiment: MTT cytotoxicity assay, MCF-7; format: cell-based; settings: Homo sapiens, MCF7, 72 h treatment, read-out: Half Maximal Inhibitory Concentration (IC50) MCF-7
Experimental: as §1

[3] = system: A549 (human non-small-cell lung cancer); experiment: MTT cytotoxicity assay, A549; format: cell-based; settings: Homo sapiens, A549, 72 h treatment, read-out: Half Maximal Inhibitory Concentration (IC50) A549
Experimental: as §1

[4] = system: HepG2 (human hepatocellular carcinoma); experiment: MTT cytotoxicity assay, HepG2; format: cell-based; settings: Homo sapiens, HepG2; MTT, 72 h treatment; read-out: Half Maximal Inhibitory Concentration (IC50) HepG2
Experimental: as §1

[5] = system: MDCK (Madin–Darby canine kidney) cells; experiment: MTT toxicity evaluation, MDCK; format: cell-based; settings: Canis lupus familiaris, MDCK, 72 h treatment, non-tumor cells, read-out: Half Maximal Inhibitory Concentration (IC50) MDCK
Experimental: as §1

Cc1ncc(C(=O)OC[C@@]2(C)C3CC[C@]4(C)C(CC=C5C6CC(C)(C)CC[C@]6(C(=O)OCCCCCl)CC[C@]54C)[C@@]3(C)CC[C@@H]2O)nc1C (stereo partly drawn) [Compound 25, ((3S,4R,6aR,6bS,8aS,14bR)-8a-((4-Chlorobutoxy)carbonyl)-3-hydroxy-4,6a,6b,11,11,14b-hexamethyl-1,2,3,4,4a,5,6,6a,6b,7,8,8a,9,10,11,12,12a,14,14a,14b-icosahydropicen-4-yl)methyl 5,6-dimethylpyrazine-2-carboxylate]
IC50 [1]: > 30 µM
IC50 [2]: 15.6 ± 1.41 µM
melting point: 123.6 °C
IC50 [3]: > 30 µM
IC50 [4]: 6.42 ± 0.24 µM
IC50 [5]: > 30 µM

Cc1nc(C)c(C(=O)OC[C@@]2(C)C3CC[C@]4(C)C(CC=C5C6CC(C)(C)CC[C@]6(C(=O)OCCCCCl)CC[C@]54C)[C@@]3(C)CC[C@@H]2O)nc1C (stereo partly drawn) [Compound 26, ((3S,4R,6aR,6bS,8aS,14bR)-8a-((4-Chlorobutoxy)carbonyl)-3-hydroxy-4,6a,6b,11,11,14b-hexamethyl-1,2,3,4,4a,5,6,6a,6b,7,8,8a,9,10,11,12,12a,14,14a,14b-icosahydropicen-4-yl)methyl 3,5,6-trimethylpyrazine-2-carboxylate]
IC50 [1]: > 30 µM
IC50 [2]: 18.3 ± 1.16 µM
melting point: 168.1 °C
IC50 [3]: > 30 µM
IC50 [4]: 7.15 ± 0.85 µM
IC50 [5]: > 30 µM

Reference: article PMC6213900, “Design, Synthesis, and Cytotoxic Analysis of Novel Hederagenin–Pyrazine Derivatives Based on Partial Least Squares Discriminant Analysis” (International Journal of Molecular Sciences, 2018)
